In patent US20230141603A1, “BENZODIAZEPINE DERIVATIVES AS GABA A GAMMA1 PAM” (Hoffmann-La Roche Inc., priority 2021, published 2023) one finds Ki data, which are given here for 26 molecules.

For orientation: Ki means a measure of affinity in units of concentration, obtained from inhibition or displacement.

In the experiment the target is T1, h-GABAA α1β2γ1 (Homo sapiens, UniProt P14867+Q8N1C3).
T1 construct: expressed in transfected cells; host or cells: HEK293F cells (ThermoFisher R79007), membranes
T1 sequence (P14867 28-456): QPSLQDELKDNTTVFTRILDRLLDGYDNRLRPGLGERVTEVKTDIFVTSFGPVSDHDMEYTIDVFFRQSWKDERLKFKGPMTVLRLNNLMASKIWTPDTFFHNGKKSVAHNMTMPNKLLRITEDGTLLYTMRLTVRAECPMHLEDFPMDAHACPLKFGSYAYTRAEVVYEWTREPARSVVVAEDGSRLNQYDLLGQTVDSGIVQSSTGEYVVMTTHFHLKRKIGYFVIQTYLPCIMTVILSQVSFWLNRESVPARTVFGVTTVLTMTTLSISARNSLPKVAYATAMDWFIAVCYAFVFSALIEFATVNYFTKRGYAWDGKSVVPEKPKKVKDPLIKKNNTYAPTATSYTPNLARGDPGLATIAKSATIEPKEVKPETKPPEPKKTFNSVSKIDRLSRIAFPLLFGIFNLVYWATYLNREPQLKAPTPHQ
T1 sequence (P47870 25-512 partner limits assumed): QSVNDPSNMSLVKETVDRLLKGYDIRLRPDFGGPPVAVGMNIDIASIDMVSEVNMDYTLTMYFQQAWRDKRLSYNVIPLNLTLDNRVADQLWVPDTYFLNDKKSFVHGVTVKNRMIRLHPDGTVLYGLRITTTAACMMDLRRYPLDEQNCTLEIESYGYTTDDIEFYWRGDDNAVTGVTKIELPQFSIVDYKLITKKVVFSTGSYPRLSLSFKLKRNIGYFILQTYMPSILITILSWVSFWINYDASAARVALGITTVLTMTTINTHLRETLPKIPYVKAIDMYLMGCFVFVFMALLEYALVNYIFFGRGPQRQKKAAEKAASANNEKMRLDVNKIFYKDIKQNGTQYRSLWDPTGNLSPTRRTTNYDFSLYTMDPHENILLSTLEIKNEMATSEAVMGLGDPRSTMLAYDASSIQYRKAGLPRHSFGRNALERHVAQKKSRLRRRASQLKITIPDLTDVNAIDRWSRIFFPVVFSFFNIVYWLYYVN
T1 sequence (Q8N1C3 36-465): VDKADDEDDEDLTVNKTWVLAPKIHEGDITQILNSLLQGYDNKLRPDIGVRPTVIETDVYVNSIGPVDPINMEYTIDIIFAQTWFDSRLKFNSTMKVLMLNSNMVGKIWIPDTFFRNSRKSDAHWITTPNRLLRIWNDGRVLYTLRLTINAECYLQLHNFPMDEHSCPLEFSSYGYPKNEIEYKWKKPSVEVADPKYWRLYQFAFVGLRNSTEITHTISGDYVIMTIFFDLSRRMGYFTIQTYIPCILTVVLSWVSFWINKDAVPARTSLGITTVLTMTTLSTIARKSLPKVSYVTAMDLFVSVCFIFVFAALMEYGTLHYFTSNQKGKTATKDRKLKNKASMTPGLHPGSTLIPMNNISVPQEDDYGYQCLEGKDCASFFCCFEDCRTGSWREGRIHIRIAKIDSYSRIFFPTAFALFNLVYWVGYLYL
As to the kind of experiment: Radioligand binding assay, [3H]RO7239181 competition, HEK293F membranes.
With `Fc1cccnc1C1=NCc2nncn2-c2ccc(Br)c(Cl)c21` [Example 29, 8-bromo-7-chloro-6-(3-fluoro-2-pyridyl)-4H-[1,2,4]triazolo[4,3-a][1,4]benzodiazepine], the affinity corresponds to a Ki of 66.2 nM.

`Cc1ccc2c(c1Cl)C(c1c(F)cccc1F)=NCc1n[nH]c(=O)n1-2` [Example 16, 7-chloro-6-(2,6-difluorophenyl)-8-methyl-2,4-dihydro-[1,2,4]triazolo[4,3-a][1,4]benzodiazepin-1-one] came in with a Ki of 22.7 nM.

On to `CO[C@H]1C[C@H](c2nnc3n2-c2ccc(Cl)c(Cl)c2C(c2c(F)cccc2F)=NC3)C1` [Example 91, trans-7,8-dichloro-6-(2,6-difluorophenyl)-1-(3-methoxycyclobutyl)-4H-[1,2,4]triazolo[4,3-a][1,4]benzodiazepine], for which the Ki stood at 51.3 nM.

`COc1ccc2c(c1Cl)C(c1c(F)cccc1F)=NCc1nnc(-c3cccnn3)n1-2` [Example 57, 7-chloro-6-(2,6-difluorophenyl)-8-methoxy-1-pyridazin-3-yl-4H-[1,2,4]triazolo[4,3-a][1,4]benzodiazepine] gave a Ki of 170 nM.

For `Fc1cccc(F)c1C1=NCc2nnc(-c3ccncn3)n2-c2ccc(Br)c(Br)c21` [Example 43, 7,8-dibromo-6-(2,6-difluorophenyl)-1-pyrimidin-4-yl-4H-[1,2,4]triazolo[4,3-a][1,4]benzodiazepine], the Ki was 8.4 nM.

As for `O=c1[nH]nc2n1-c1ccc(Cl)c(Cl)c1C(c1c(F)cccc1F)=NC2` [Example 9, 7,8-dichloro-6-(2,6-difluorophenyl)-2,4-dihydro-[1,2,4]triazolo[4,3-a][1,4]benzodiazepin-1-one], the affinity, expressed as Ki, was 7.3 nM.

For the molecule `Fc1ccccc1C1=NCc2nnc(-c3cccnn3)n2-c2ccc(Br)c(Cl)c21` [Example 3, 8-bromo-7-chloro-6-(2-fluorophenyl)-1-pyridazin-3-yl-4H-[1,2,4]triazolo[4,3-a][1,4]benzodiazepine], the Ki was determined as 26.1 nM.

As for `Cc1nnc2n1-c1ccc(C3CC3)c(Cl)c1C(c1c(F)cccc1F)=NC2` [Example 6, 7-chloro-8-cyclopropyl-6-(2,6-difluorophenyl)-1-methyl-4H-[1,2,4]triazolo[4,3-a][1,4]benzodiazepine], the Ki stood at 237 nM.

Turning to `Fc1cccc(F)c1C1=NCc2nnc(-c3cccnn3)n2-c2ccc(Br)c(Cl)c21` [Example 104, 8-bromo-7-chloro-6-(2,6-difluorophenyl)-1-pyridazin-3-yl-4H-[1,2,4]triazolo[4,3-a][1,4]benzodiazepine], the Ki stood at 4.2 nM.

`Fc1ccccc1C1=NCc2nnc(-c3ccncn3)n2-c2ccc(Cl)c(Cl)c21` [Example 18, 7,8-dichloro-6-(2-fluorophenyl)-1-pyrimidin-4-yl-4H-[1,2,4]triazolo[4,3-a][1,4]benzodiazepine] had a Ki of 54.1 nM.

`O=c1[nH]nc2n1-c1ccc(Cl)c(Cl)c1C(c1ncccc1F)=NC2` [Example 59, 7,8-dichloro-6-(3-fluoro-2-pyridyl)-2,4-dihydro-[1,2,4]triazolo[4,3-a][1,4]benzodiazepin-1-one] showed a Ki of 54 nM.

For the molecule `Cc1ccc2c(c1Cl)C(c1c(F)cccc1F)=NCc1nnc(-c3cccnn3)n1-2` [Example 48, 7-chloro-6-(2,6-difluorophenyl)-8-methyl-1-pyridazin-3-yl-4H-[1,2,4]triazolo[4,3-a][1,4]benzodiazepine], the Ki came out at 20.8 nM.

In turn, `Fc1cccnc1C1=NCc2nnc(-c3ccncn3)n2-c2ccc(C(F)(F)F)c(Cl)c21` [Example 69, 7-chloro-6-(3-fluoro-2-pyridyl)-1-pyrimidin-4-yl-8-(trifluoromethyl)-4H-[1,2,4]triazolo[4,3-a][1,4]benzodiazepine] came in with a Ki of 139 nM.

For `Fc1cccc(F)c1C1=NCc2nnc(-c3cccnn3)n2-c2ccc(I)c(Cl)c21` [Example 39, 7-chloro-6-(2,6-difluorophenyl)-8-iodo-1-pyridazin-3-yl-4H-[1,2,4]triazolo[4,3-a][1,4]benzodiazepine], the Ki worked out at 4.7 nM.

`Fc1cccnc1C1=NCc2nnc(C3CC3)n2-c2ccc(Br)c(Cl)c21` [Example 77, 8-bromo-7-chloro-1-cyclopropyl-6-(3-fluoro-2-pyridyl)-4H-[1,2,4]triazolo[4,3-a][1,4]benzodiazepine] registered a Ki of 41.5 nM.

In turn, `Fc1cccnc1C1=NCc2nnc(-c3ccncn3)n2-c2ccc(Br)c(Cl)c21` [Example 46, 8-bromo-7-chloro-6-(3-fluoro-2-pyridyl)-1-pyrimidin-4-yl-4H-[1,2,4]triazolo[4,3-a][1,4]benzodiazepine] gave a Ki of 60.5 nM.

As for `Cc1nnc2n1-c1ccc(C(F)(F)F)c(Cl)c1C(c1ncccc1F)=NC2` [Example 78, 7-chloro-6-(3-fluoro-2-pyridyl)-1-methyl-8-(trifluoromethyl)-4H-[1,2,4]triazolo[4,3-a][1,4]benzodiazepine], the Ki is 67.7 nM.

Molecule `Cn1cc(-c2nnc3n2-c2ccc(C(F)(F)F)c(Cl)c2C(c2ncccc2F)=NC3)cn1` [Example 70, 7-chloro-6-(3-fluoro-2-pyridyl)-1-(1-methylpyrazol-4-yl)-8-(trifluoromethyl)-4H-[1,2,4]triazolo[4,3-a][1,4]benzodiazepine] displayed a Ki of 275 nM.

As to `Cc1nnc2n1-c1ccc(Br)c(Cl)c1C(c1ncccc1F)=NC2` [Example 24, 8-bromo-7-chloro-6-(3-fluoro-2-pyridyl)-1-methyl-4H-[1,2,4]triazolo[4,3-a][1,4]benzodiazepine], the affinity, expressed as Ki, was 43.6 nM.

In the case of `Cl.NCc1nnc2n1-c1ccc(Br)c(Cl)c1C(c1c(F)cccc1F)=NC2` [Example 36, [8-bromo-7-chloro-6-(2,6-difluorophenyl)-4H-[1,2,4]triazolo[4,3-a][1,4]benzodiazepin-1-yl]methanamine hydrochloride], the affinity, expressed as Ki, was 11.9 nM.

`Fc1cccc(F)c1C1=NCc2nnc(-c3cccnn3)n2-c2ccc(Br)c(Br)c21` [Example 42, 7,8-dibromo-6-(2,6-difluorophenyl)-1-pyridazin-3-yl-4H-[1,2,4]triazolo[4,3-a][1,4]benzodiazepine] showed a Ki of 7.2 nM.

On to `Fc1cccc(F)c1C1=NCc2nncn2-c2ccc(Cl)c(Cl)c21` [Example 15, 7,8-dichloro-6-(2,6-difluorophenyl)-4H-[1,2,4]triazolo[4,3-a][1,4]benzodiazepine], for which affinity was put at a Ki of 11.5 nM.

On to `Cc1nnc2n1-c1ccc(Br)c(Cl)c1C(c1c(F)cccc1F)=NC2` [Example 1, 8-bromo-7-chloro-6-(2,6-difluorophenyl)-1-methyl-4H-[1,2,4]triazolo[4,3-a][1,4]benzodiazepine], for which the Ki was 11.3 nM.

Turning to `Clc1cccnc1C1=NCc2nnc(-c3ccncn3)n2-c2ccc(Br)c(Cl)c21` [Example 44, 8-bromo-7-chloro-6-(3-chloro-2-pyridyl)-1-pyrimidin-4-yl-4H-[1,2,4]triazolo[4,3-a][1,4]benzodiazepine], the Ki turned out to be 11.5 nM.

Molecule `Fc1cccc(F)c1C1=NCc2nncn2-c2ccc(I)c(Cl)c21` [Example 34, 7-chloro-6-(2,6-difluorophenyl)-8-iodo-4H-[1,2,4]triazolo[4,3-a][1,4]benzodiazepine] registered a Ki of 5.6 nM.

In turn, `Fc1ccccc1C1=NCc2nnc(-c3cccnn3)n2-c2ccc(Cl)c(Cl)c21` [Example 10, 7,8-dichloro-6-(2-fluorophenyl)-1-pyridazin-3-yl-4H-[1,2,4]triazolo[4,3-a][1,4]benzodiazepine] displayed a Ki of 25.8 nM.
